{"source": "paper PMC10510397", "about": "“Development of a Selective Peptide κ-Opioid Receptor Antagonist by Late-Stage Functionalization with Cysteine Staples” (Journal of Medicinal Chemistry, 2023)", "key": {"[1]": {"experiment": "stability assay in human serum (RP-HPLC)", "format": "in vitro ADME", "details": "37 °C", "description": "The stability of peptide ligands was determined with human serum from male AB plasma (Sigma) centrifuged at 13,300g for 10 min to remove the lipid content. The supernatant was preincubated at 37 °C for 5 min before 10 μL of a peptide stock solution (3 mg/mL in H2O) was added to 300 μL of serum. A reference solution was prepared in phosphate-buffered saline (PBS) buffer. The serum was incubated at 37 °C and analyzed over a time course of 5 h with 40 μL of aliquots removed at time points T = 0, 15, 30, 60, 90, 120, 240, and 300 min. Each aliquot was quenched with 40 μL of 5 M urea and incubated on ice for 10 min. The proteins were then precipitated with the addition of 40 μL of 20% (w/v) trichloroacetic acid and further incubated on ice for 10 min. The samples were centrifuged for 10 min at 15,000g, and the supernatant was analyzed by analytical RP-HPLC using a Phenomenex Jupiter C18 column (5 μm, 300 Å, 150 × 2 mm) using a linear gradient from 0 to 50% solvent B (90% acetonitrile, 10% H2O, and 0.05% trifluoroacetic acid) and a flow rate of 1 mL/min. The percentage of peptide remaining was determined by the integration of the analyte in comparison to T = 0 min. The peptides were analyzed in triplicate, and data were fitted to an exponential decay curve using GraphPad Prism software."}, "mouse KOR [2]": {"target": "T1, mouse KOR (Mus musculus, UniProt P33534)", "T1 sequence (P33534 whole entry)": "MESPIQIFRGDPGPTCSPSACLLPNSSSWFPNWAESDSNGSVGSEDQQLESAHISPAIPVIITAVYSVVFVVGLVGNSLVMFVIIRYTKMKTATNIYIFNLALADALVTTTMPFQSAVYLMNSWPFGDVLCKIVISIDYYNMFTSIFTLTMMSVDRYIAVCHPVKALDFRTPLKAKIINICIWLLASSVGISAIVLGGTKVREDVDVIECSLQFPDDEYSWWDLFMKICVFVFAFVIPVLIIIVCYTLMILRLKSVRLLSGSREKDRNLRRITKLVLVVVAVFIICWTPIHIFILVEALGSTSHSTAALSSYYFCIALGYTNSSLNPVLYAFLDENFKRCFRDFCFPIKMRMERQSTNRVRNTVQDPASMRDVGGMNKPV", "experiment": "cell-based", "format": "cell-based", "parameters": "expressed in transfected cells", "details": "for activity at KOR in the functional cAMP assay: agonist mode, ligand on its own, up to concentrations of 10 μM; for EC50: HEK293 cells stably expressing mouse KOR, forskolin 10 μM, n.a. = not active, read-out: potency/efficacy cAMP EC50 ± SD; for Emax: read-out: potency/efficacy cAMP Emax ± SD"}, "mouse KOR [3]": {"target": "T1, mouse KOR", "experiment": "biochemical", "format": "binding", "parameters": "expressed in transfected cells"}, "mouse KOR [4]": {"target": "T1, mouse KOR", "format": "cell-based", "parameters": "expressed in transfected cells; host or cells: HEK293 (transient co-transfection, 1:10 ratio)", "details": "10 μM ligand; compared to dynA1–13-NH2 = 100%"}, "DRG neurons": {"tested_on": "DRG neurons", "experiment": "single-cell calcium microfluorimetry in DRG neurons", "format": "cell-based, mouse", "details": "0.5 μM pre-applied, U50,488 10 μM"}, "mice [5]": {"tested_on": "mice", "experiment": "radiant heat tail-flick assay", "format": "in vivo, mouse", "details": "10 mg/kg s.c., 24 h before U50,488 5 mg/kg", "description": "(§1) Breeding, euthanasia, and all procedures of animal handling were performed according to the regulations of animal care and welfare. Experiments were carried out in accordance with the European Communities Council Directive of 24 November 1986 (86/609/EEC). Behavioral experiments were performed in male CD1 mice (8–10 weeks old) purchased from Janvier Labs (Le Genest-Saint-Isle, France). All animal care and experimental procedures were in accordance with the ethical guidelines for the animal welfare standards of the European Communities Council Directive (2010/63/EU) and were approved by the Committee of Animal Care of the Austrian Federal Ministry of Science and Research. […]\nThe radiant heat tail-flick test was performed using an UB 37360 Ugo Basile analgesiometer (Ugo Basile s.r.l., Varese, Italy) as described previously.[52] The reaction time required by the mouse to remove its tail after application of the radiant heat was measured and defined as the tail-flick latency (in seconds). Tail-flick latencies were measured before and after s.c. administration of saline (control) or U50,488 (5 mg/kg) (i.e., 30 and 60 min) (test latency, TL). […] The antinociceptive effect (as the percentage of the maximum possible effect, % MPE) was calculated according to the formula = [(TL – BL)/(cutoff time – BL)] × 100 where TL represents the test latency and BL is the basal latency."}, "mice [6]": {"tested_on": "mice", "experiment": "rotarod test", "format": "in vivo, mouse", "details": "10 mg/kg s.c., 24 h before U50,488 5 mg/kg; at 30 min", "description": "as §1, with “Research. Mice were group-housed in a temperature-controlled specific pathogen-free room with a 12 h light/dark cycle and with free access to food and water.” for “Research.”\nThe rotarod test was performed using the accelerating rotarod treadmill (Acceler Rota-Rod 7650, Ugo Basile s.r.l., Varese, Italy) for mice (diameter 3.5 cm) as described previously.[53] […] The time spent on the drum was recorded for each mouse before (baseline) and at 30 min after s.c. administration of saline (control) or U50,488 (5 mg/kg). […] The rotarod data are expressed as percentage (%) changes from the rotarod latencies obtained before (baseline, BL) and after drug administration (test, TL) calculated as 100 × (TL/BL)."}, "[7]": {"details": "1 nM [3H]-diprenorphine, HEK293 cell membranes stably expressing mouse KOR, read-out: affinity Ki ± SD"}}, "note": "Structures can show the parent of a compound that is named as a salt. Where two headings read alike, the source gives them in different places. Numbered stars: 1 amine (or outer) side, 2 acyl side, 3 side chain; on linkers, the order of the positions; unused ones are H or OH. Bridge positions count the residues as written; N and C are the ends. Square brackets hold non-standard residues; d marks the D form. Peptide text beside a SMILES is read from it. CH2COCH2 = O=C(C[*:1])C[*:2]; CH2 = C([*:1])[*:2]; Mpa = O=C(O)CCS"}
{"smiles": "CC(C)C[C@H](NC(=O)[C@H](CCCCN)NC(=O)[C@@H]1CCCN1C(=O)[C@H](CCCNC(=N)N)NC(=O)[C@@H]1CSCSCCC(=O)N[C@@H](Cc2ccc(O)cc2)C(=O)NCC(=O)NCC(=O)N[C@@H](Cc2ccccc2)C(=O)N[C@@H](CC(C)C)C(=O)N[C@@H](CCCNC(=N)N)C(=O)N[C@@H](CCCNC(=N)N)C(=O)N1)C(=O)N[C@@H](CCCCN)C(N)=O", "note": "[CSD-CH2(1,8)-NH2] ([Mpa]YGGFLRRCRPKLK-NH2; linker 1-9 via CH2)", "values": [{"measurement": "t1/2 in human serum", "setting": "[1]", "value": 95, "unit": "min"}, {"measurement": "activity at KOR in the functional cAMP assay", "setting": "mouse KOR [2]", "value": "inactive"}]}
{"smiles": "CC(C)C[C@H](NC(=O)[C@H](CCCCN)NC(=O)[C@@H]1CCCN1C(=O)[C@H](CCCNC(=N)N)NC(=O)[C@@H]1CSCSCCC(=O)N[C@@H](Cc2ccc(O)cc2)C(=O)NCC(=O)NCC(=O)N[C@@H](Cc2ccccc2)C(=O)N[C@@H](CC(C)C)C(=O)N[C@@H](CCCNC(=N)N)C(=O)N[C@@H](CCCNC(=N)N)C(=O)N1)C(=O)N[C@@H](CCCCN)C(=O)O", "note": "[CSD-CH2(1,8)-OH] ([Mpa]YGGFLRRCRPKLK-OH; linker 1-9 via CH2)", "values": [{"measurement": "activity at KOR in the functional cAMP assay", "setting": "mouse KOR [2]", "value": "inactive"}]}
{"smiles": "CC[C@H](C)[C@@H]1NC(=O)[C@H](CCCNC(=N)N)NC(=O)[C@H](CCCNC(=N)N)NC(=O)[C@H](CC(C)C)NC(=O)[C@H](Cc2ccccc2)NC(=O)CNC(=O)CNC(=O)[C@H](Cc2ccc(O)cc2)NC(=O)CCSCSC[C@@H](C(=O)N[C@@H](CCCCN)C(=O)N[C@@H](CC(C)C)C(=O)N[C@@H](CCCCN)C(N)=O)NC(=O)[C@H](CCCNC(=N)N)NC1=O", "note": "[CSD-CH2(1,10)-NH2] ([Mpa]YGGFLRRIRCKLK-NH2; linker 1-11 via CH2)", "values": [{"measurement": "Ki", "setting": "mouse KOR [3]", "value": 6, "unit": "nM"}, {"measurement": "Ki", "setting": "mouse KOR [3]; [7]", "value": 5.6, "unit": "nM"}, {"measurement": "improvement of KOR affinity by C-terminal amidation", "setting": "mouse KOR [3]; versus counterpart with C-terminal carboxylic acid", "value": "~6", "unit": "fold"}, {"measurement": "EC50", "setting": "mouse KOR [2]", "value": 540, "unit": "nM"}, {"measurement": "Emax", "setting": "mouse KOR [2]", "value": "49 ± 15", "unit": "%"}, {"measurement": "β-arrestin-2 recruitment efficiency (ligand induced BRET)", "setting": "mouse KOR [4]", "value": 38, "unit": "%"}]}
{"smiles": "CC[C@H](C)[C@@H]1NC(=O)[C@H](CCCNC(=N)N)NC(=O)[C@H](CCCNC(=N)N)NC(=O)[C@H](CC(C)C)NC(=O)[C@H](Cc2ccccc2)NC(=O)CNC(=O)CNC(=O)[C@H](Cc2ccc(O)cc2)NC(=O)CCSCSC[C@@H](C(=O)N[C@@H](CCCCN)C(=O)N[C@@H](CC(C)C)C(=O)N[C@@H](CCCCN)C(=O)O)NC(=O)[C@H](CCCNC(=N)N)NC1=O", "note": "[CSD-CH2(1,10)-OH] ([Mpa]YGGFLRRIRCKLK-OH; linker 1-11 via CH2)", "values": [{"measurement": "Ki", "setting": "mouse KOR [3]; [7]", "value": 31, "unit": "nM"}, {"measurement": "activity at KOR in the functional cAMP assay", "setting": "mouse KOR [2]", "value": "inactive"}, {"measurement": "β-arrestin-2 recruitment efficiency (ligand induced BRET)", "setting": "mouse KOR [4]", "value": "less than 25%"}]}
{"smiles": "CC(C)C[C@H](NC(=O)[C@H](CCCCN)NC(=O)[C@@H]1CCCN1C(=O)[C@H](CCCNC(=N)N)NC(=O)[C@@H]1CSCC(=O)CSCCC(=O)N[C@@H](Cc2ccc(O)cc2)C(=O)NCC(=O)NCC(=O)N[C@@H](Cc2ccccc2)C(=O)N[C@@H](CC(C)C)C(=O)N[C@@H](CCCNC(=N)N)C(=O)N[C@@H](CCCNC(=N)N)C(=O)N1)C(=O)N[C@@H](CCCCN)C(N)=O", "note": "[CSD-ace(1,8)-NH2] ([Mpa]YGGFLRRCRPKLK-NH2; linker 1-9 via CH2COCH2)", "values": [{"measurement": "Emax", "setting": "mouse KOR [2]", "value": "73 ± 14", "unit": "%"}]}
{"smiles": "CC(C)C[C@H](NC(=O)[C@H](CCCCN)NC(=O)[C@@H]1CCCN1C(=O)[C@H](CCCNC(=N)N)NC(=O)[C@@H]1CSCC(=O)CSCCC(=O)N[C@@H](Cc2ccc(O)cc2)C(=O)NCC(=O)NCC(=O)N[C@@H](Cc2ccccc2)C(=O)N[C@@H](CC(C)C)C(=O)N[C@@H](CCCNC(=N)N)C(=O)N[C@@H](CCCNC(=N)N)C(=O)N1)C(=O)N[C@@H](CCCCN)C(=O)O", "note": "[CSD-ace(1,8)-OH] ([Mpa]YGGFLRRCRPKLK-OH; linker 1-9 via CH2COCH2)", "values": [{"measurement": "Emax", "setting": "mouse KOR [2]", "value": "57 ± 11", "unit": "%"}]}
{"smiles": "CC[C@H](C)[C@H](NC(=O)[C@H](CCCNC(=N)N)NC(=O)[C@H](CCCNC(=N)N)NC(=O)[C@H](CC(C)C)NC(=O)[C@H](Cc1ccccc1)NC(=O)CNC(=O)CNC(=O)[C@@H](N)Cc1ccc(O)cc1)C(=O)N[C@@H](CCCNC(=N)N)C(=O)N1CCC[C@H]1C(=O)N[C@@H](CCCCN)C(=O)N[C@@H](CC(C)C)C(=O)N[C@@H](CCCCN)C(N)=O", "note": "[dynA1–13-NH2, Dynorphin (dyn) A1–13 amide trifluoroacetate salt, reference compound]", "values": [{"measurement": "t1/2 in human serum", "setting": "[1]", "value": 4, "unit": "min"}, {"measurement": "EC50", "setting": "mouse KOR [2]", "value": 9.1, "unit": "nM"}, {"measurement": "Emax", "setting": "mouse KOR [2]", "value": 100, "unit": "%"}, {"measurement": "β-arrestin-2 recruitment efficiency (ligand induced BRET)", "setting": "mouse KOR [4]", "value": 100, "unit": "%"}]}
{"smiles": "Oc1ccc2c3c1O[C@H]1c4[nH]c5c(c4C[C@@]4(O)[C@@H](C2)N(CC2CC2)CC[C@]314)C[C@@]1(O)[C@H]2Cc3ccc(O)c4c3[C@@]1(CCN2CC1CC1)[C@H]5O4", "note": "[nor-BNI, norbinaltorphimine]", "values": [{"measurement": "effect on U50,488-induced calcium signals in DRG neurons", "setting": "DRG neurons", "value": "inhibited the activity of U50,488"}, {"measurement": "antagonism of U50,488-induced antinociception", "setting": "mice [5]", "value": "blocked the antinociceptive response of U50,488"}, {"measurement": "antagonism of U50,488 effect in the rotarod test", "setting": "mice [6]", "value": "Antagonism"}]}
